According to article PMC10521662 (Biodesign Research, 2022):

Target: T1, β-PGM (β-phosphoglucomutase) (Pyrococcus horikoshii, UniProt O58510)
T1 construct: gene PH0749; recombinant, plasmid pET20b-βpgm, E. coli BL21(DE3), purified
T1 sequence (O58510 1-230): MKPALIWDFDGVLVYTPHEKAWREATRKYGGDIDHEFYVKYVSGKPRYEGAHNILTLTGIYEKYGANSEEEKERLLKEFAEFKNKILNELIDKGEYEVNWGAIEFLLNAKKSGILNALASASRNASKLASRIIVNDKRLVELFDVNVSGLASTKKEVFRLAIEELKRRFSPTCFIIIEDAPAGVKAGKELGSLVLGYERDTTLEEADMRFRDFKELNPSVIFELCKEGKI
Assay: G6P formation, G6PDH NADH assay at […] nm
Format: biochemical
Details: 10 mM β-G1P; 10 mM MgCl2; pH 7.0; 37 °C

Structure (SMILES): O=P(O)(O)O[C@@H]1O[C@H](CO)[C@@H](O)[C@H](O)[C@H]1O [β-G1P]
- G6P formation, G6PDH NADH assay at 340 nm: β-PGM was able to utilize β-G1P but showed no activity for α-G1P
